Assay results reported in ChEMBL document CHEMBL4725353, “Discovery of Pyrido[2,3-b]indole Derivatives with Gram-Negative Activity Targeting Both DNA Gyrase and Topoisomerase IV” (J Med Chem, 2020).
In brackets after ≈: the same amount, converted by molar mass.

Legend:
[1] = Distribution coefficient between octanol and buffer, log D of the compound in pH 7.4 buffer by CAMDIS assay; format: physicochemical
Escherichia coli [2] = assay: microbe, parasite or virus in culture; settings: ATCC 29213
Description: Antibacterial activity against Escherichia coli ATCC 29213 assessed as reduction in microbial growth preincubated for 20 to 24 hrs followed by subculture in absence of compound and measured on day 4 CLSI based broth microdilution susceptibility method

Escherichia coli [3] = assay: microbe, parasite or virus in culture; settings: ATCC 25922
Description: Antibacterial activity against Escherichia coli ATCC 25922 assessed as reduction in microbial growth preincubated for 20 to 24 hrs followed by subculture in absence of compound and measured on day 4 CLSI based broth microdilution susceptibility method

physchem = settings: PBS, pH 6.5
Description: Solubility of compound in PBS at pH 6.5 incubated for over night by HPLC-UV based lyophilization solubility assay

in vitro = settings: mouse, liver microsomes
Description: Intrinsic clearance in mouse liver microsomes preincubated for 10 mins followed by NADPH regenerating system addition and measured up to 30 mins by LC/MS-MS analysis

Row | Structure (SMILES) | logD [1] | MIC (Escherichia coli [2]) | MIC (Escherichia coli [3]) | solubility (physchem) | CLint scaled at 0.5 h (in vitro)
1 | CCNc1cc(F)cc2c1[nH]c1ncc(-c3cncc(N4CCNCC4)c3)c(-n3ccc(C(F)(F)F)n3)c12 | 2.8 | 0.5 µg/mL (≈ 0.953 µM) | 8 µg/mL (≈ 15.3 µM) |  | 
2 | CCNc1cc(F)cc2c1[nH]c1ncc(-c3cncc(C#N)c3)c(-n3nc(C(F)F)c4c3CNC4)c12 |  |  | 2 µg/mL (≈ 4.09 µM) | < 1 µg/mL | 
3 | CCNc1cc(F)cc2c1[nH]c1ncc(-c3cncc(C#N)c3)c(-n3cc4c(n3)CNC4)c12 |  |  | 4 µg/mL (≈ 9.12 µM) |  | 
4 | CCNc1cc(F)cc2c1[nH]c1ncc(-c3cnc(OCC)nc3)c(-n3ccc(C(F)(F)F)n3)c12 |  | < 0.016 µg/mL | 2 µg/mL (≈ 4.12 µM) | < 0.3 µg/mL | 37 mL/min/kg
5 | CCNc1cc(F)cc2c1[nH]c1ncc(-c3cncc(C#N)c3)c(-c3nc(C(F)(F)F)cs3)c12 |  | < 0.016 µg/mL | 0.5 µg/mL (≈ 1.04 µM) | < 1 µg/mL | 
6 | CCNc1cc(F)cc2c1[nH]c1ncc(-c3cnc(NC)nc3)c(-n3ccc(C(F)(F)F)n3)c12 |  | < 0.016 µg/mL | 0.25 µg/mL (≈ 0.531 µM) | < 1 µg/mL | 53.1 mL/min/kg
7 | CCNc1cc(F)cc2c1[nH]c1ncc(-c3cncc(Cc4ncc[nH]4)c3)c(-n3ccc(C(F)(F)F)n3)c12 | 3.62 | < 0.057 µg/mL | 2.83 µg/mL (≈ 5.44 µM) |  | 
8 | CCNc1cc(F)cc2c1[nH]c1ncc(-c3cnc(N4CCOCC4)nc3)c(-n3ccc(C(F)(F)F)n3)c12 |  | < 0.016 µg/mL | 1 µg/mL (≈ 1.9 µM) | < 1 µg/mL | 24.2 mL/min/kg
9 | CCNc1cc(F)cc2c1[nH]c1ncc(-c3cnc(C(C)(C)O)nc3)c(-n3ccc(C(F)(F)F)n3)c12 |  | < 0.25 µg/mL | 1 µg/mL (≈ 2 µM) | < 1 µg/mL | 58.7 mL/min/kg
10 | CCNc1cc(F)cc2c1[nH]c1ncc(-c3cncc(C#N)c3)c(-n3cc(C(=O)OCC)c(C(F)(F)F)n3)c12 |  |  | 2 µg/mL (≈ 3.72 µM) |  | 
11 | CCNc1cc(F)cc2c1[nH]c1ncc(-c3cnc4c(c3)c(=O)c(C(=O)O)cn4C)c(-n3ccc(C(F)(F)F)n3)c12 | 2.54 | < 0.125 µg/mL | 1 µg/mL (≈ 1.77 µM) |  | 
12 | CNc1cc(F)cc2c1[nH]c1ncc(-c3cnc(C4(C(=O)O)CC4)nc3)c(-n3ccc(C(F)(F)F)n3)c12 |  | < 0.016 µg/mL | 0.75 µg/mL (≈ 1.47 µM) | 148 µg/mL (≈ 289 µM) | 22.9 mL/min/kg
13 | CCNc1cc(F)cc2c1[nH]c1ncc(-c3cncc(C#N)c3)c(-c3cccc(C(F)(F)F)c3)c12 |  | 0.063 µg/mL (≈ 0.133 µM) | > 16 µg/mL |  | 
14 | CCNc1cc(F)cc2c1[nH]c1ncc(-c3cncc(CC(N)=O)c3)c(-n3ccc(C(F)(F)F)n3)c12 | 3.1 | < 0.125 µg/mL | 1 µg/mL (≈ 2.01 µM) |  | 
15 | CCNc1cc(F)cc2c1[nH]c1ncc(-c3cncc(C#N)c3)c(-n3ccc(CN)n3)c12 |  | 2 µg/mL (≈ 4.69 µM) | 16 µg/mL (≈ 37.5 µM) |  | 
16 | CCNc1cc(F)cc2c1[nH]c1ncc(-c3cnc(CC(=O)O)nc3)c(-n3ccc(C(F)(F)F)n3)c12 |  | < 0.016 µg/mL | 1 µg/mL (≈ 2 µM) | 9 µg/mL (≈ 18 µM) | 44 mL/min/kg
17 | CCNc1cc(F)cc2c1[nH]c1ncc(-c3cncc(C#N)c3)c(-n3ccc(C(F)F)n3)c12 |  | < 0.25 µg/mL | 1 µg/mL (≈ 2.24 µM) | < 1 µg/mL | 
18 | CCNc1cc(F)cc2c1[nH]c1ncc(-c3cncc(C#N)c3)c(-n3ccc(CC)n3)c12 |  | < 0.25 µg/mL | 1 µg/mL (≈ 2.35 µM) | < 0.3 µg/mL | 
19 | CCNc1cc(F)cc2c1[nH]c1ncc(-c3cncc(C#N)c3)c(-n3ccc(C#N)n3)c12 |  | < 0.016 µg/mL | 0.125 µg/mL (≈ 0.296 µM) | < 1 µg/mL | 
20 | CCNc1cc(F)cc2c1[nH]c1ncc(-c3cncc(C(=O)NO)c3)c(-n3ccc(C(F)(F)F)n3)c12 | 3.05 | < 0.125 µg/mL | 2 µg/mL (≈ 4 µM) |  | 
21 | CCNc1cc(F)cc2c1[nH]c1ncc(-c3cnc(OCC(C)(C)C(=O)O)nc3)c(-n3ccc(C(F)(F)F)n3)c12 |  | < 0.016 µg/mL | 2 µg/mL (≈ 3.59 µM) | < 1 µg/mL | 43.5 mL/min/kg
22 | CCNc1cc(F)cc2c1[nH]c1ncc(-c3cnc(OC)nc3)c(-n3ccc(C(F)(F)F)n3)c12 |  | < 0.016 µg/mL | 0.5 µg/mL (≈ 1.06 µM) | < 1 µg/mL | 20.2 mL/min/kg
23 | CCNc1cc(F)cc2c1[nH]c1ncc(-c3cncc(C(=O)NC)c3)c(-n3ccc(C(F)(F)F)n3)c12 | 3.42 | < 0.25 µg/mL | 0.5 µg/mL (≈ 1.01 µM) |  | 
24 | CCNc1cc(F)cc2c1[nH]c1ncc(-c3cncc(C#N)c3)c(-n3cc(C(N)=O)c(C(F)(F)F)n3)c12 |  |  | > 16 µg/mL |  | 

Row | Structure (SMILES) | logD [1] | MIC (Escherichia coli [2]) | MIC (Escherichia coli [3]) | solubility (physchem) | CLint scaled at 0.5 h (in vitro)
25 | CCNc1cc(F)cc2c1[nH]c1ncc(-c3cncc(C#N)c3)c(-n3ccc(C(C)C)n3)c12 |  | < 0.25 µg/mL | > 16 µg/mL | < 0.7 µg/mL | 
26 | CCNc1cc(F)cc2c1[nH]c1ncc(-c3cncc(C#N)c3)c(-n3ccc(C(=O)O)n3)c12 |  | > 16 µg/mL | > 16 µg/mL |  | 
27 | CCNc1cc(F)cc2c1[nH]c1ncc(-c3cnc([C@H](C)O)nc3)c(-n3ccc(C(F)(F)F)n3)c12 |  | < 0.25 µg/mL | 0.5 µg/mL (≈ 1.03 µM) | < 0.2 µg/mL | 52.8 mL/min/kg
28 | CCNc1cc(F)cc2c1[nH]c1ncc(-c3cnc(NCC4(C(=O)O)CC4)nc3)c(-n3ccc(C(F)(F)F)n3)c12 |  | < 0.016 µg/mL | 4 µg/mL (≈ 7.21 µM) | 133 µg/mL (≈ 240 µM) | 
29 | CCNc1cc(F)cc2c1[nH]c1ncc(-c3cncc(Cc4ncco4)c3)c(-n3ccc(C(F)(F)F)n3)c12 | 3.66 | < 0.056 µg/mL | 0.71 µg/mL (≈ 1.36 µM) |  | 
30 | CCNc1cc(F)cc2c1[nH]c1ncc(-c3cncc(C#N)c3)c(-n3cc(C(=O)O)c(C(F)(F)F)n3)c12 |  |  | > 16 µg/mL |  | 
31 | CCNc1cc(F)cc2c1[nH]c1ncc(-c3cncc(C(=N)NC)c3)c(-n3ccc(C(F)(F)F)n3)c12 | 2.28 | 0.5 µg/mL (≈ 1.01 µM) | 8 µg/mL (≈ 16.1 µM) |  | 
32 | CCNc1cc(F)cc2c1[nH]c1ncc(-c3cnc(C(=O)NC)nc3)c(-n3ccc(C(F)(F)F)n3)c12 |  | < 0.25 µg/mL | < 0.25 µg/mL |  | 
33 | CCNc1cc(F)cc2c1[nH]c1ncc(-c3cncc(Cc4n[nH]c(=O)o4)c3)c(-n3ccc(C(F)(F)F)n3)c12 | 3.38 | < 0.056 µg/mL | 0.73 µg/mL (≈ 1.36 µM) |  | 
34 | CCNc1cc(F)cc2c1[nH]c1ncc(-c3cncc(C#N)c3)c(-n3cnc(C(F)(F)F)c3)c12 |  | 0.25 µg/mL (≈ 0.537 µM) | > 16 µg/mL |  | 
35 | CCNc1cc(F)cc2c1[nH]c1ncc(-c3cnc(C(N)=O)nc3)c(-n3ccc(C(F)(F)F)n3)c12 |  | < 0.25 µg/mL | < 0.25 µg/mL | < 0.2 µg/mL | 55.5 mL/min/kg
36 | CCNc1cc(F)cc2c1[nH]c1ncc(-c3cncc(C#N)c3)c(-n3ccc(C(C)(C)C)n3)c12 |  | < 0.25 µg/mL | > 16 µg/mL | < 0.3 µg/mL | 
37 | CCNc1cc(F)cc2c1[nH]c1ncc(-c3cncc(N4CCOCC4)c3)c(-n3ccc(C(F)(F)F)n3)c12 | 3.64 | < 0.25 µg/mL | 1 µg/mL (≈ 1.9 µM) |  | 
38 | CCNc1cc(F)cc2c1[nH]c1ncc(-c3cnc(C(=O)O)nc3)c(-n3ccc(C(F)(F)F)n3)c12 |  | 4 µg/mL (≈ 8.24 µM) | 16 µg/mL (≈ 33 µM) |  | 
39 | CCNc1cc(F)cc2c1[nH]c1ncc(-c3cncc(C#N)c3)c(-n3ncc4c3CNCC4)c12 |  |  | 2 µg/mL (≈ 4.42 µM) |  | 20.2 mL/min/kg
40 | CCNc1cc(F)cc2c1[nH]c1ncc(-c3cncc(C#N)c3)c(-n3nc(C(F)(F)F)cc3CO)c12 |  |  | > 16 µg/mL |  | 
41 | CCNc1cc(F)cc2c1[nH]c1ncc(-c3cnc([C@@H](C)O)nc3)c(-n3ccc(C(F)(F)F)n3)c12 |  | < 0.25 µg/mL | 0.5 µg/mL (≈ 1.03 µM) | < 1 µg/mL | 57.2 mL/min/kg
42 | CCNc1cc(F)cc2c1[nH]c1ncc(-c3cncc(C#N)c3)c(-n3cc(CO)c(C(F)(F)F)n3)c12 |  |  | 4 µg/mL (≈ 8.07 µM) |  | 
43 | CCNc1cc(F)cc2c1[nH]c1ncc(-c3cnc(C)nc3)c(-n3ccc(C(F)(F)F)n3)c12 |  | < 0.016 µg/mL | 0.5 µg/mL (≈ 1.1 µM) |  | 
44 | CCNc1cc(F)cc2c1[nH]c1ncc(-c3cncc(C#N)c3)c(-n3nc(C(F)(F)F)cc3C)c12 |  |  | 8 µg/mL (≈ 16.7 µM) |  | 
45 | CCNc1cc(F)cc2c1[nH]c1ncc(-c3cncc(C#N)c3)c(-n3ncc4c3CCNC4)c12 |  |  | 4 µg/mL (≈ 8.84 µM) | 200 µg/mL (≈ 442 µM) | 52.1 mL/min/kg
46 | CCNc1cc(F)cc2c1[nH]c1ncc(-c3cncc(C#N)c3)c(-n3cc(C(F)(F)F)cn3)c12 |  | < 0.016 µg/mL | 1 µg/mL (≈ 2.15 µM) | < 1 µg/mL | 
47 | CCNc1cc(F)cc2c1[nH]c1ncc(-c3cncc(C#N)c3)c(-n3ccc(C)n3)c12 |  | < 0.25 µg/mL | 2 µg/mL (≈ 4.86 µM) | < 1 µg/mL | 
48 | CCNc1cc(F)cc2c1[nH]c1ncc(-c3cnc(C4(C(=O)O)CC4)nc3)c(-n3ccc(C(F)(F)F)n3)c12 |  | < 0.016 µg/mL | 0.375 µg/mL (≈ 0.714 µM) | 67 µg/mL (≈ 128 µM) | 43.8 mL/min/kg
